Data from patent US20180105863A1, “NEURAL STEM CELL THERAPY FOR OBESITY AND DIABETES” (ALBERT EINSTEIN COLLEGE OF MEDICINE, INC., priority 2012, published 2018).

System: hypothalamic Notch signaling
Assay: Daily third-ventricle injection of DLL4 in obese mice implanted with DNIκBα-hNSC
Format: in vivo
Procedure: In vivo implantation of hNSC with Notch inhibition counteracts obesity-T2D: Hypothalamic hNSC implantation was performed to investigate whether Notch inhibition could mimic IKKβ/NF-κB inhibition in counteracting obesity and related metabolic disorders. This investigation was also rationalized by the data showing that Notch signaling was robust (indicated by the active form of Notch 1 protein) in Sox2-positie cells of HFD-fed mice but not chow-fed mice (FIG. 7E). In the experiment, C57BL/6 mice received mediobasal hypothalamic injections of GFP-hNSC which carried Notch 1-4 shRNAs vs. control shRNA, and were then maintained on HFD vs. chow feeding. […] Thus, inhibition of Notch signaling can recapitulate the effect of NF-κB inhibition in the NSC implantation with respect to counteraction against HFD-induced obesity and metabolic disorders. Finally, hNSC implantation was employed to assess the IKKβ/NF-κB-Notch connection which was established in vitro. […] Therefore, NSC implantation can, at least, primarily employ neurogenetic program to counteract against metabolic disease, although other associated factors (such as inflammatory changes) probably also participate primarily or secondarily.

DLL4: Notch protein ligand DLL4, injected daily into the third ventricle
DNIκBα-hNSC induced neurogenesis (data not shown): reversal of ^DNIκBα-hNSC induced neurogenesis | hypothalamic inflammation (data not shown): not an induction of hypothalamic inflammation | anti-obesity effect of DNIκBα-hNSC implantation (mice already obese via chronic HFD feeding): significantly abolished the anti-obesity effect
